Data taken from PMC6910976 (ACS infectious diseases, 2019).

Assays:
Assay in all cases: UPLC-high resolution MS of intact protein
Type in all cases: binding
Conditions in all cases: covalent; 2 uM enzyme, 50 uM drug, 25 mM Tris pH 8.0, 5 h, 20 °C
LdtA = biological target: T1, LdtA (Mycolicibacterium smegmatis, UniProt A0QY44)
T1 sequence (A0QY44 41-259): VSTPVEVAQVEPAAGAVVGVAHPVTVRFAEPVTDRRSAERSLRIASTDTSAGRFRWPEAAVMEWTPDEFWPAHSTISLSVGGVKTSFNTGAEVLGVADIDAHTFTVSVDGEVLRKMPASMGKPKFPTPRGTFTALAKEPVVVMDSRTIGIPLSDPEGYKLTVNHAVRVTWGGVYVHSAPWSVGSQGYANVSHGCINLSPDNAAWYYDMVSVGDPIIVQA

LdtB = biological target: T2, LdtB (Mycolicibacterium smegmatis, UniProt A0R1G6)
T2 sequence (A0R1G6 27-400): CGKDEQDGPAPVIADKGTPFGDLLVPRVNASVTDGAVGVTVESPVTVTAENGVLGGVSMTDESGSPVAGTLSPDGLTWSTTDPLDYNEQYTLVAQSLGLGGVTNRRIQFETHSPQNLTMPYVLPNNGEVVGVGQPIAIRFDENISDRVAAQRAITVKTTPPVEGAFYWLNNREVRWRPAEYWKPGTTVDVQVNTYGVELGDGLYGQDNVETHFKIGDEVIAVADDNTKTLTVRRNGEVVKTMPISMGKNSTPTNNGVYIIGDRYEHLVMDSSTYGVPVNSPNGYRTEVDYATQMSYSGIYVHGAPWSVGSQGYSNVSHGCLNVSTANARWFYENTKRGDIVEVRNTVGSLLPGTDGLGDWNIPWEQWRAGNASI

LdtF = biological target: T3, LdtF (Mycolicibacterium smegmatis, UniProt A0QS24)
T3 sequence (A0QS24 31-420): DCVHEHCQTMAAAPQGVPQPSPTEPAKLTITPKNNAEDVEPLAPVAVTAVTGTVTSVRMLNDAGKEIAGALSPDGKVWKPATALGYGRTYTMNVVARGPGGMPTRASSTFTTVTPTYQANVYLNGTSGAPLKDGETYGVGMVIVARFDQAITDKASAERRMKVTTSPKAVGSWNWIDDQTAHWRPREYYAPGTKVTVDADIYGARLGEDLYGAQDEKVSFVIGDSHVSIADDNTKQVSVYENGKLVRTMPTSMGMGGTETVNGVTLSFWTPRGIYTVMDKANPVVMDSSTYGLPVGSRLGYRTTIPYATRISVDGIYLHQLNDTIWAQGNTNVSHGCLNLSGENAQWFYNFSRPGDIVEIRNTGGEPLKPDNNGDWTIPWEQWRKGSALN

SMILES	UPLC-high resolution MS of intact protein (LdtA)	UPLC-high resolution MS of intact protein (LdtB)	UPLC-high resolution MS of intact protein (LdtF)
C[C@@H](O)[C@H]1C(=O)N2C(C(=O)[O-])=C(SC3Cn4cnc[n+]4C3)[C@H](C)[C@H]12 (stereo partly shown) [biapenem]	fully acylated by the (carba)penems faropenem, biapenem, doripenem, and meropenem	fully acylated by the (carba)penems faropenem, biapenem, doripenem, and meropenem	small amounts of apo-LdtF remained following incubation with biapenem, doripenem, and faropenem
C[C@@H](O)[C@H]1C(=O)N2C(C(=O)O)=C(S[C@@H]3CN[C@H](CNS(N)(=O)=O)C3)[C@H](C)[C@H]12 [doripenem]	–	–	small amounts of apo-LdtF remained following incubation with biapenem, doripenem, and faropenem
C[C@@H](O)[C@H]1C(=O)N2C(C(=O)O)=C([C@H]3CCCO3)S[C@H]12 [faropenem]	fully acylated by the (carba)penems faropenem, biapenem, doripenem, and meropenem	fully acylated by the (carba)penems faropenem, biapenem, doripenem, and meropenem	small amounts of apo-LdtF remained following incubation with biapenem, doripenem, and faropenem
C[C@@H](O)[C@H]1C(=O)N2C(C(=O)O)=C(S[C@@H]3CN[C@H](C(=O)N(C)C)C3)[C@H](C)[C@H]12 [meropenem]	fully acylated by the (carba)penems faropenem, biapenem, doripenem, and meropenem	fully acylated by the (carba)penems faropenem, biapenem, doripenem, and meropenem	only meropenem completely acylates LdtF under the same conditions
